# Source: ChEMBL document CHEMBL1156829 (Proc Natl Acad Sci U S A, 2008)
# pEC50: −log10 of the molar value.
# Experiments:
# Plasmodium falciparum [1] = test: NOVARTIS: Inhibition of Plasmodium falciparum W2 (drug-resistant) proliferation in erythrocyte-based infection assay; type: functional, organism-based; settings: Plasmodium falciparum, W2; read-out: EC50
# [2] = NOVARTIS: Cytotoxicity against human hepatocellular carcinoma cell line (Huh7); type: toxicity, cell-based, Huh-7; settings: Huh7 cells (hepatocellular carcinoma cell line)
# Plasmodium falciparum [3] = test: NOVARTIS: Inhibition of Plasmodium falciparum 3D7 (drug-susceptible) proliferation in erythrocyte-based infection assay; type: functional, organism-based; settings: Plasmodium falciparum, 3D7
SMILES,pEC50 (Plasmodium falciparum [1]),CC50 [2],pEC50 (Plasmodium falciparum [3])
C=CC1CN2CCC1CC2C(O)c1ccnc2ccc(OC)cc12 (stereo unspecified),7.27,82500 nM,7.93
COc1ccc(NC(=O)C2c3ccccc3C(=O)N(CC(C)C)C2c2cccs2)cc1OC (stereo unspecified),7.16,> 100000 nM,7.12
CC[C@]1(C2OC(C3O[C@](O)(CO)[C@@H](C)C[C@H]3C)C[C@H]2C)CCC([C@@]2(C)CC[C@@]3(C[C@@H](O)[C@H](C)C([C@H](C)[C@H](OC)C(C)C(=O)O)O3)O2)O1 (stereo partly specified),> 9.06,1290 nM,8.55
CC1=C(C(=O)OC(C)C)C(c2ccccc2Cl)C2=C(CC(c3ccccc3)CC2=O)N1 (stereo unspecified),7.42,> 64200 nM,6.53
Cc1ccc(C2Sc3ccccc3NC3=C2C(=O)c2ccccc23)cc1 (stereo unspecified),7.33,68600 nM,6.60
CCCCCc1ccc(OCCOCC[n+]2ccccc2)c(CCCCC)c1,8.16,> 10000 nM,8.15
CC1(C)C2CCC(C2)C1(C)NC(=S)NN=Cc1ccccn1 (stereo unspecified),7.42,54700 nM,7.46
Cc1cc(Nc2ccc(OCc3ccccc3)cc2)nc2cc(O)ccc12,7.93,17200 nM,7.13
COC(=O)C1=C(C)NC2=C(C(=O)CC(c3ccc(OC)c(OC)c3)C2)C1c1cccs1 (stereo unspecified),7.15,> 100000 nM,6.88
COC(=O)C1=C(C)NC(=Cc2cc(C)n(-c3cc(C)ccc3OC)c2C)C1=O,7.15,> 100000 nM,7.46
COCCOC(=O)C1=C(C)NC2=C(C(=O)CC(c3ccc(OC)c(OC)c3)C2)C1c1cccc(Cl)c1Cl (stereo unspecified),7.24,> 100000 nM,6.75
Cn1nc(C(=O)N2CCCCCC2)c2c1CCC(NCC(C)(C)N1CCOCC1)C2 (stereo unspecified),8.26,> 9560 nM,7.65
CCOC(=O)C1=C(C)NC2=C(C(=O)C(C(=O)OCC)C(c3cccc(OC)c3)C2)C1c1ccc([N+](=O)[O-])cc1 (stereo unspecified),7.43,> 54600 nM,7.27
NC(Cc1ccccc1)C(=O)N1CCn2c(nc(-c3ccccc3)c2Nc2ccc3c(c2)OCO3)C1 (stereo unspecified),7.54,42800 nM,7.52
CC(C)c1nc(N2CCN(C(=O)Nc3ccccc3)CC2)c(C#N)c2c1COC(C)(C)C2,7.17,> 100000 nM,7.27
CCCCCCCC(=O)N(C)CCCNc1ccnc2cc(Cl)ccc12,> 8.23,> 9690 nM,6.62
C/C=C/C(C(=O)NCCCC)N1C(=O)c2cc(NC(C)=O)ccc2NC(=O)[C@@H]1C (stereo partly specified),8.34,7590 nM,6.70
COCCOC(=O)C1=C(C)NC2=C(C(=O)CC(c3ccc(OC)cc3)C2)C1c1ccc(F)cc1 (stereo unspecified),7.23,> 100000 nM,6.79
CCCOC(=O)C1=C(C)NC2=C(C(=O)CC(c3ccc(OC)c(OC)c3)C2)C1c1cccc([N+](=O)[O-])c1 (stereo unspecified),7.44,> 62400 nM,6.84
CC1CCN(C2=C(NC3CCCC3)C(=O)c3ccccc3C2=O)CC1,7.85,24400 nM,8.04
CCOC(=O)C1=C(C)NC2=C(C(=O)CC(c3ccc(OC)cc3)C2)C1c1ccsc1 (stereo unspecified),7.21,> 100000 nM,6.52
COc1ccc(C2CC(=O)C3=C(C2)NC(C)=C(C(=O)OC2CCCCC2)C3c2ccc([N+](=O)[O-])cc2)cc1OC (stereo unspecified),7.21,> 100000 nM,6.71
COc1cccc(C(=O)Oc2ccccc2-c2nc3cc(C)ccn3c2NC(C)(C)CC(C)(C)C)c1,8.21,> 10000 nM,6.01
O=C(Cc1ccccc1)NCc1ccc(Nc2c(-c3cccnc3)nc3ccccn23)cc1,> 8.21,> 10000 nM,7.47

SMILES,pEC50 (Plasmodium falciparum [1]),CC50 [2],pEC50 (Plasmodium falciparum [3])
COc1ccc(CCN2C(=S)NC3c4cccc(OC)c4OC2(C)C3C(=O)Nc2ccc(C)cc2C)cc1OC (stereo unspecified),7.16,> 100000 nM,6.49
Cc1noc(C)c1S(=O)(=O)N(Cc1ccccc1)CC(O)CN1CCC(NC(=O)c2cccc3ccccc23)C1 (stereo unspecified),> 8.19,> 10000 nM,6.90
Cc1ccn2c(NC(C)(C)CC(C)(C)C)c(-c3ccccc3OC(=O)c3ccccc3F)nc2c1,8.20,> 10000 nM,6.02
CC1(C)C2CCC1(C)C(NCc1ccccc1O)C2 (stereo unspecified),7.50,48600 nM,6.97
CCOC(=O)C1=C(C)NC2=C(C(=O)CC(c3ccc(OC)c(OC)c3)C2)C1c1cccc(Br)c1 (stereo unspecified),7.18,> 100000 nM,6.77
COc1cc(COc2cc(N)c(Cl)cc2C(=O)CCC2CCN(CCNS(C)(=O)=O)CC2)cc(OC)c1,> 8.07,> 13000 nM,< 6.10
COc1cccc(-c2cc(C(=O)Nc3cc(Cl)ccc3O)on2)c1,7.19,> 100000 nM,6.04
COc1ccc(C2CC(=O)C3=C(C2)NC(=O)CC3c2ccc([N+](=O)[O-])cc2)cc1OC (stereo unspecified),7.19,> 100000 nM,6.46
CCOC(=O)C1=C(C)NC2=C(C(=O)CC(c3ccc(OC)c(OC)c3)C2)C1c1ccc([N+](=O)[O-])cc1 (stereo unspecified),7.19,> 100000 nM,6.74
COc1ccc(CNCc2cc(-c3ccnc4cc(Cl)ccc34)ccc2O)c(OC)c1,7.42,59200 nM,6.02
CCOC(=O)C1=C(C)NC2=C(C(=O)CC(C)(C)C2)C1c1ccc(Cl)cc1 (stereo unspecified),7.17,> 100000 nM,6.94
CC1CC(C)CN(C(=O)c2sc3ccccc3c2Cl)C1 (stereo unspecified),7.19,> 100000 nM,7.45
COC(=O)C1=C(C)NC(=Cc2cc(C)n(-c3ccccc3C(F)(F)F)c2C)C1=O,7.15,> 100000 nM,7.66
CC(C)(C)NCC(O)Cn1c2ccc(Br)cc2c2cc(Br)ccc21 (stereo unspecified),7.85,20700 nM,6.67
CCOC(=O)c1c(C)nc2c(c1C)c(=O)oc1ccccc12,7.15,> 100000 nM,< 4.90
CCN1c2ccc([N+](=O)[O-])cc2N(CC)C1(C)c1ccccc1 (stereo unspecified),7.40,67600 nM,6.69
CCC(C)OC(=O)C1=C(C)NC2=C(C(=O)CC(c3ccc(Cl)cc3)C2)C1c1ccccc1F (stereo unspecified),7.23,> 100000 nM,6.69
COC(=O)c1c(-c2c(Cl)cccc2Cl)noc1/C=C/Nc1ccccc1,> 8.17,> 10000 nM,6.54
CCC(C)(C)n1nnnc1C(c1cc2ccc(C)cc2[nH]c1=O)N1CCN(c2ccccc2)CC1 (stereo unspecified),7.21,> 100000 nM,6.34
CC(=O)N1c2ccc([N+](=O)[O-])cc2C(C)(c2ccccc2)CC1(C)C (stereo unspecified),7.21,> 100000 nM,5.96
COc1cc(-c2cc(C(F)(F)F)n3ncc(C(=O)Nc4cc(C)ccc4O)c3n2)cc(OC)c1OC,7.15,> 100000 nM,6.75
CCCCCCCSc1nsc(NC(=O)CCC)n1,> 8.19,> 10000 nM,< 5.88
CC(C)OCCCNc1sc(S(=O)(=O)c2ccccc2)nc1S(=O)(=O)c1ccc(Cl)cc1,7.24,> 100000 nM,7.03
